# Results published in publication PMC7673680, “Small-molecule sequestration of amyloid-β as a drug discovery strategy for Alzheimer’s disease” (Science Advances, 2020).
# Target: T1, amyloid-β 42 (Aβ42), monomeric (Homo sapiens, UniProt P05067)
# T1 construct: gene APP; Aβ42, monomeric 42-residue peptide, N-terminally biotinylated for BLI
# Experiment: biolayer interferometry (kon/koff global fit); supported by 2D HN-BESTCON NMR and dot-blot sequestration fit (Kd […])
# Assay type: binding
# T1 sequence (P05067 672-713): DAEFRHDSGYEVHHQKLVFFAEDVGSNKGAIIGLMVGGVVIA
structure (smiles),measurement,value
"O=[N+]([O-])c1ccc(Nc2ccccc2-c2ccccc2)c2nonc12 [10074-G5, biphenyl-2-yl-(7-nitro-benzo[1,2,5]oxadiazol-4-yl)-amine]",Kd,6 µM
